# Read-outs that look alike come from different tables or passages of the source.
# Experiments:
# Format in all cases: in vivo
# [1] = test system: eastern black nightshade (Solanum ptycanthum); experiment: Test C pre/postemergence; conditions: Solanum, pre-emergence, Preemergence, scale 0 to 100, 0 no effect, 100 complete control, read-out: Plant response rating, Nightshade
# In short: (§1)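 We sprayed seeded pots preemergence and 2–18 cm seedlings postemergence with test chemicals in a non-phytotoxic solvent mixture including surfactant. Greenhouse plants were visually compared with untreated controls at 12 to 14 days and scored 0 (no effect) to 100 (complete control).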
# [2] = test system: velvetleaf (Abutilon theophrasti); experiment: Test C pre/postemergence; conditions: Abutilon theophrasti; for pest or weed control at 16 g/ha: 16 g ai/ha; for pest or weed control at 31 g/ha: 31 g ai/ha; for pest or weed control at 62 g/ha: 62 g ai/ha
# In short: as §1
# [3] = test system: yellow nutsedge (Cyperus esculentus); experiment: Test C pre/postemergence; conditions: Cyperus; for pest or weed control at 16 g/ha: 16 g ai/ha; for pest or weed control at 31 g/ha: 31 g ai/ha; for pest or weed control at 62 g/ha: 62 g ai/ha
# In short: as §1
# [4] = test system: bearded (brdd.) sprangletop (Leptochloa fusca ssp. fascicularis); experiment: Test E flooded paddy water application; conditions: Flood, 21 days, scale 0 to 100 (0 no effect, 100 complete control)
# In short: (§2)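 Greenhouse pots of Tama silt loam with weeds and rice at 2.0–2.5-leaf stage, flooded to 3 cm; compounds applied directly into paddy water, depth maintained. Visual rating versus untreated controls after 21 days, 0 (no effect) to 100 (complete control); 29.5/26.7 °C, 16-h photoperiod.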
# [5] = test system: ducksalad (Heteranthera limosa); experiment: Test E flooded paddy water application; conditions: Flood, 21 days, scale 0 to 100 (0 no effect, 100 complete control)
# In short: as §2
# [6] = test system: early watergrass (Echinochloa oryzoides); experiment: Test E flooded paddy water application; conditions: Flood, 21 days, scale 0 to 100 (0 no effect, 100 complete control)
# In short: as §2
# [7] = test system: junglerice (Echinochloa colona); experiment: Test E flooded paddy water application; conditions: Flood, 21 days, scale 0 to 100 (0 no effect, 100 complete control)
# In short: as §2
# [8] = test system: late watergrass (Echinochloa oryzicola); experiment: Test E flooded paddy water application; conditions: Flood, 21 days, scale 0 to 100 (0 no effect, 100 complete control)
# In short: as §2
# [9] = test system: smallflower umbrella sedge (Cyperus difformis); experiment: Test E flooded paddy water application; conditions: Flood, 21 days, scale 0 to 100 (0 no effect, 100 complete control)
# In short: as §2
# [10] = test system: transplanted rice seedlings (Oryza sativa cv. ‘Japonica-M202’); experiment: Test E flooded paddy water application; conditions: Flood, 21 days, scale 0 to 100 (0 no effect, 100 complete control)
# In short: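 Response scored visually on a 0–100 scale (100 = complete control) at 21 days against untreated pots. Treatment was into paddy water 3 cm deep over silt loam, with plants at the 2.0–2.5-leaf stage, grown under 16-h light at 29.5/26.7 °C day/night.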
# [11] = test system: water seeded rice seedlings (Oryza sativa cv. ‘Japonica-M202’); experiment: Test E flooded paddy water application; conditions: Flood, 21 days, scale 0 to 100 (0 no effect, 100 complete control)
# In short: as §2
# [12] = post-emergence, Postemergence, read-out: Plant response rating (scale of 0 to 100), Velvetleaf
# [13] = pre-emergence, Preemergence, scale 0 to 100, 0 no effect, 100 complete control, read-out: Plant response rating, Velvetleaf
# [14] = post-emergence, Postemergence, read-out: Plant response rating (scale of 0 to 100), Nutsedge, Yellow
# [15] = pre-emergence, Preemergence, scale 0 to 100, 0 no effect, 100 complete control, read-out: Plant response rating, Nutsedge, Yellow
structure (smiles),measurement,setting,value
"Nc1nc(-c2ccc(Cl)cc2)nc(C(=O)O)c1Cl [Compound 65, 6-amino-5-chloro-2-(4-chlorophenyl)-4-pyrimidinecarboxylic acid]",pest or weed control at 16 g/ha,[1]; 16 g ai/ha,0%
same,pest or weed control at 31 g/ha,[1]; 31 g ai/ha,0%
same,pest or weed control at 16 g/ha,[2]; [12],65%
same,pest or weed control at 31 g/ha,[2]; [12],80%
same,pest or weed control at 62 g/ha,[2]; [12],80%
same,pest or weed control at 125 g/ha,"[2]; post-emergence, Postemergence, 125 g ai/ha, scale 0 to 100 (0 no effect, 100 complete control), read-out: Velvetleaf plant response rating",90%
same,pest or weed control at 16 g/ha,[2]; [13],0%
same,pest or weed control at 31 g/ha,[2]; [13],40%
same,pest or weed control at 62 g/ha,[2]; [13],80%
same,pest or weed control at 16 g/ha,[3]; [14],0%
same,pest or weed control at 31 g/ha,[3]; [14],0%
same,pest or weed control at 62 g/ha,[3]; [14],20%
same,pest or weed control at 125 g/ha,"[3]; post-emergence, Postemergence, 125 g ai/ha, scale 0 to 100 (0 no effect, 100 complete control), read-out: Nutsedge, Yellow plant response rating",50%
same,pest or weed control at 16 g/ha,[3]; [15],0%
same,pest or weed control at 31 g/ha,[3]; [15],0%
same,pest or weed control at 62 g/ha,[3]; [15],30%
same,"Sprangletop, Brdd. plant response rating",[4]; 32 g ai/ha,0
same,"Sprangletop, Brdd. plant response rating",[4]; 64 g ai/ha,0
same,"Sprangletop, Brdd. plant response rating",[4]; 125 g ai/ha,40
same,"Sprangletop, Brdd. plant response rating",[4]; 250 g ai/ha,40
same,"Plant response rating, Sprangletop, Brdd.",[4]; 16 g ai/ha,0
same,Ducksalad plant response rating,[5]; 32 g ai/ha,100
same,Ducksalad plant response rating,[5]; 64 g ai/ha,100
same,Ducksalad plant response rating,[5]; 125 g ai/ha,100
same,Ducksalad plant response rating,[5]; 250 g ai/ha,100
same,"Plant response rating, Ducksalad",[5]; 16 g ai/ha,100
same,"Watergrass, Early plant response rating",[6]; 32 g ai/ha,0
same,"Watergrass, Early plant response rating",[6]; 64 g ai/ha,0
same,"Watergrass, Early plant response rating",[6]; 125 g ai/ha,0
same,"Watergrass, Early plant response rating",[6]; 250 g ai/ha,10
same,"Plant response rating, Watergrass, Early",[6]; 16 g ai/ha,0
same,Junglerice plant response rating,[7]; 32 g ai/ha,0
same,Junglerice plant response rating,[7]; 64 g ai/ha,0
same,Junglerice plant response rating,[7]; 125 g ai/ha,40
same,Junglerice plant response rating,[7]; 250 g ai/ha,40
same,"Plant response rating, Junglerice",[7]; 16 g ai/ha,0
same,"Watergrass, Late plant response rating",[8]; 32 g ai/ha,0
same,"Watergrass, Late plant response rating",[8]; 64 g ai/ha,0
same,"Watergrass, Late plant response rating",[8]; 125 g ai/ha,0
same,"Watergrass, Late plant response rating",[8]; 250 g ai/ha,25
same,"Plant response rating, Watergrass, Late",[8]; 16 g ai/ha,0
same,"Sedge, Umbrella plant response rating",[9]; 32 g ai/ha,80
same,"Sedge, Umbrella plant response rating",[9]; 64 g ai/ha,85
same,"Sedge, Umbrella plant response rating",[9]; 125 g ai/ha,100
same,"Sedge, Umbrella plant response rating",[9]; 250 g ai/ha,100
same,"Plant response rating, Sedge, Umbrella",[9]; 16 g ai/ha,20
same,"Rice, Transplanted plant response rating",[10]; 32 g ai/ha,0
same,"Rice, Transplanted plant response rating",[10]; 64 g ai/ha,0
same,"Rice, Transplanted plant response rating",[10]; 125 g ai/ha,0
same,"Rice, Transplanted plant response rating",[10]; 250 g ai/ha,0
same,"Plant response rating, Rice, Transplanted",[10]; 16 g ai/ha,0
same,"Rice, Water Seeded plant response rating",[11]; 32 g ai/ha,0
same,"Rice, Water Seeded plant response rating",[11]; 64 g ai/ha,0
same,"Rice, Water Seeded plant response rating",[11]; 125 g ai/ha,0
same,"Rice, Water Seeded plant response rating",[11]; 250 g ai/ha,10
same,"Plant response rating, Rice, Water Seeded",[11]; 16 g ai/ha,0
